Where two headings read alike, the source gives them in different places.
Legend:
[1] = biological target: GSK-3α/β; assay: GSK-3α/β kinase assay (GS-1 peptide); type: biochemical, porcine; details: 15 μM ATP, 30° C.
Description: After incubating at 30° C. for 30 (thirty) minutes, the 25 μl aliquots of the supernatant were treated as described above.

[2] = biological target: CK1δ/ε; assay: CK1δ/ε kinase assay (CK1-specific peptide); type: biochemical, porcine; details: 15 μM ATP, 30° C.
Description: CK1δ/ε was purified from porcine brain by affinity chromatography on an immobilized axin fragment. It was assayed as described for CDK1 but using a CK1-specific peptide substrate.

[3] = biological target: DYRK1A (Rattus norvegicus, UniProt Q63470); assay: DYRK1A kinase assay (myelin basic protein); type: biochemical
[4] = tested on: SH-SY5Y cells; assay: Cell survival, MTS reduction, SH-SY5Y; type: cell-based; details: Homo sapiens, Table 2, exposed for 24 hours, read-out: IC50 survival of SH-SY5Y cells (MTS reduction)
Description: The human neuroblastoma cell line SH-SY5Y was grown in a DMEM medium with L-glutamine originating from Invitrogen (Cergy Pontoise, France), antibiotics and 10% by volume of FCS originating from Invitrogen. […] These compounds were also tested at various concentrations with regard to their effects on SH-SY5Y and HEK293 cells. […] The IC50 values were calculated from the dose-response curves and are given in micromoles (mean±standard deviation of two independent measurements carried out in triplicate). […] The survival of the cells was estimated by the assaying of the degree of reduction of MTS induced by this exposure. […] The ICS© values were calculated from dose-response curves and are given in micromoles in table 3 below.

[5] = biological target: CDK1/cyclin B; assay: CDK1/cyclin B kinase assay (histone H1, [γ-33P]-ATP); details: read-out: IC50 CDK1/cyclin B, 15 μM ATP, 30° C.
Description: Controls were prepared with appropriate dilutions of dimethyl sulfoxide.
After incubating at 30° C. for 30 minutes, 25 μl aliquots of the supernatant were spotted onto filters made of Whatman P81 phosphocellulose paper and, 20 seconds later, the filters were washed 5 times (for at least 5 (five) minutes each time) in a solution of 10 ml of phosphoric acid/liter of water. The wet filters were subjected to counting in the presence of an ACS scintillation fluid from Amersham.

[6] = biological target: T1, CDK2/cyclin A (Homo sapiens, UniProt P24941); assay: CDK2/cyclin A kinase assay; type: biochemical; details: 15 μM ATP, 30° C., histone H1; read-out: IC50 CDK2/cyclinA
T1 construct: made in house; host or cells: insect cells
Description: CDK2/cyclin A (human, recombinant, expressed in insect cells) was assayed as described for CDK1/cyclin B.

[7] = biological target: CDK5/p25 (Homo sapiens, UniProt Q00535); assay: CDK5/p25 kinase assay; type: biochemical, mammalian
CDK5/p25, sequence (Q00535 whole entry, species assumed, the tested form may be a part): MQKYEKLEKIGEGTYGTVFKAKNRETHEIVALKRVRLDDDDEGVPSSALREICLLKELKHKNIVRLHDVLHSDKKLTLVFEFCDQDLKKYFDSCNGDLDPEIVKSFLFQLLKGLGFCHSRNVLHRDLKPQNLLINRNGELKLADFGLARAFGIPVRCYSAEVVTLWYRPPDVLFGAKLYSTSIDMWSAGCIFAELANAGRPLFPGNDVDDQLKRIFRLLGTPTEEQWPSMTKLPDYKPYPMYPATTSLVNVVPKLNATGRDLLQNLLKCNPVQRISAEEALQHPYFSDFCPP
CDK5/p25, sequence (Q15078 99-307 partner limits assumed, species assumed): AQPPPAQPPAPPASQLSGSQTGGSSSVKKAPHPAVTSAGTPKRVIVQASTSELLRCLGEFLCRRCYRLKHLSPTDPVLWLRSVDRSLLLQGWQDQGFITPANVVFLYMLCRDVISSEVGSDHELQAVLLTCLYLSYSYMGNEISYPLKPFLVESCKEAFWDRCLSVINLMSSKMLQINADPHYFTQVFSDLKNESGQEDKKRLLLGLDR
Description: CDK5/p25 was reconstituted by mixing equal amounts of recombinant mammalian CDK5 and p25 expressed in E. coli as GST (glutathione S-transferase) fusion protein and purified by affinity chromatography on glutathione-agarose (vectors provided by Doctor L. H. Tsai) (p25 is a truncated version of p35, the 35-kDa CDK5 activator). Its activity was assayed with histone H1 in buffer C as described for CDK1/cyclin B.

[8] = biological target: T2, CDK9/cyclin T (Homo sapiens, UniProt P50750); assay: CDK9/cyclin T kinase assay; type: biochemical; details: 15 μM ATP, 30° C., pRB fragment
T2 construct: made in house; host or cells: insect cells
T2 sequence (P50750 whole entry, the tested form may be a part): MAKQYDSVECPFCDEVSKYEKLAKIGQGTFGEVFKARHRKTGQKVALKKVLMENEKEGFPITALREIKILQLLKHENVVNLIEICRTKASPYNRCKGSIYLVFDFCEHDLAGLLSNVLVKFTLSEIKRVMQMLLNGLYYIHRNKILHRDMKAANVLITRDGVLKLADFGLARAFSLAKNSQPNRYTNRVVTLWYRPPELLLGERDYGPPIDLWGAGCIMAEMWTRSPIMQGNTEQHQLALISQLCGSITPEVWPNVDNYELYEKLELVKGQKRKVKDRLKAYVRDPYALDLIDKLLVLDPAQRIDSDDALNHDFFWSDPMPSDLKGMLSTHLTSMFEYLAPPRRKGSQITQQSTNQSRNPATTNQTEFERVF
T2 sequence (O60563 whole entry partner, the tested form may be a part): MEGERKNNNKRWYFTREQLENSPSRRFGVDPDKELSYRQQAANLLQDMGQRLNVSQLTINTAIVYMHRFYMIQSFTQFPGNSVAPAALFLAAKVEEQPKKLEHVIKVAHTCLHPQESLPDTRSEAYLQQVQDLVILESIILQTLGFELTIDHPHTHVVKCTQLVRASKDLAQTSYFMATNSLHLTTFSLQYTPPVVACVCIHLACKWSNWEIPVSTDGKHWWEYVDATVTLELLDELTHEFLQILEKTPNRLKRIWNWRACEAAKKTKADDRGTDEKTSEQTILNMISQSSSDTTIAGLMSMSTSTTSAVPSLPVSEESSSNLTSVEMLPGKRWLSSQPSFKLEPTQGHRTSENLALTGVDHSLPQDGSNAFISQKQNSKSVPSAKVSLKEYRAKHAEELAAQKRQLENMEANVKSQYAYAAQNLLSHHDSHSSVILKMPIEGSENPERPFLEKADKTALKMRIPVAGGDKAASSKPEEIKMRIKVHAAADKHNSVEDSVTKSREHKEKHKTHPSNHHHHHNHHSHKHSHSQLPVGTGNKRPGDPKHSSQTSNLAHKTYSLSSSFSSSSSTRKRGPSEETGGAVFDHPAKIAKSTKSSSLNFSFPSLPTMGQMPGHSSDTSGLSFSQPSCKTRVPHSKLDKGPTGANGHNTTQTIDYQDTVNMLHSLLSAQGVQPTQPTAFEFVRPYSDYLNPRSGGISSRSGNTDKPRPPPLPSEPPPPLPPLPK

[9] = 15 μM ATP, 30° C., myelin basic protein, read-out: IC50 DYRK1A
[10] = 15 μM ATP, 30° C., histone H1, read-out: IC50 CDK5/p25

For `COc1ccnc2[nH]cc(-c3ccncn3)c12` [Meriolin 14, 4-methoxy-3-(pyrimidin-4-yl)-1H-pyrrolo[2,3-b]pyridine], the IC50 [1] was 1100 nM, the IC50 [2] was 600 nM and the IC50 [3, 9] was 230 nM. The IC50 [4] was 10200 nM and the IC50 [5] was 1300 nM.
Work on `Nc1nccc(-c2c[nH]c3nccc(OCc4ccccc4)c23)n1` [Meriolin 15, 3-[(2-amino)pyrimidin-4-yl]-4-(benzyloxy)-1H-pyrrolo[2,3-b]pyridine] yielded an IC50 [6] of 1.6 nM, an IC50 [7, 10] of 2 nM and an IC50 [8] of 7.2 nM. It also gave an IC50 [1] of 3.3 nM, an IC50 [2] of 130 nM and an IC50 [3, 9] of 40 nM. For the same compound, the IC50 [4] was 13 nM, the melting point was over 210 °C and the IC50 [5] was 2.3 nM.
`Nc1nccc(-c2c[nH]c3nccc(CCc4ccccc4)c23)n1` [Meriolin 22, 3-[(2-amino)pyrimidin-4-yl]-4-phenethyl-1H-pyrrolo[2,3-b]pyridine] gave an IC50 [6] of 73 nM, an IC50 [7, 10] of 130 nM and an IC50 [1] of 800 nM. For the same compound, the IC50 [3, 9] was 73 nM, the IC50 [4] was 2400 nM and the melting point was 196 to 198 °C. It also gave an IC50 [5] of 200 nM.
`CCCC#Cc1ccnc2[nH]cc(-c3ccnc(N)n3)c12` [Meriolin 18, 3-[(2-amino)pyrimidin-4-yl]-4-(pent-1-ynyl)-1H-pyrrolo[2,3-b]pyridine] showed an IC50 [6] of 5 nM, an IC50 [7, 10] of 4.5 nM and an IC50 [1] of 82 nM. The IC50 [2] was 1300 nM, the IC50 [3, 9] was 20 nM and the IC50 [4] was 100 nM. It also gave an IC50 [5] of 11 nM.
With `COCCOc1ccnc2[nH]cc(-c3ccnc(N)n3)c12` [Meriolin 7, 3-(2-aminopyrimidin-4-yl)-4-(2-methoxyethoxyl)-1H-pyrrolo[2,3-b]pyridine] the IC50 [6] was over 10000 nM, the IC50 [1] was 63000 nM and the IC50 [2] was 100000 nM. The IC50 [4] was over 100000 nM and the IC50 [5] was 35000 nM.
For `Cn1cc(-c2ccnc(N)n2)c2c(O)ccnc21` [Meriolin 8, 3-[(2-amino)pyrimidin-4-yl]-4-hydroxy-1-methyl-1H-pyrrolo[2,3-b]pyridine], the IC50 [1] was 4600 nM, the IC50 [2] was 2300 nM and the IC50 [3, 9] was 1200 nM. It also gave an IC50 [4] of over 30000 nM and an IC50 [5] of 1200 nM.
`Nc1nccc(-c2c3c(O)ccnc3n3c(N)nccc23)n1` [Variolin B, reference compound] gave an IC50 [6] of 80 nM, an IC50 [7] of 90 nM and an IC50 [8] of 26 nM. The IC50 [1] was 70 nM, the IC50 [2] was 5 nM and the IC50 [3] was 80 nM. For the same compound, the IC50 [4] was 240 nM and the IC50 [5] was 60 nM.
`CCCCCc1ccnc2[nH]cc(-c3ccnc(N)n3)c12` [Meriolin 19, 3-[(2-amino)pyrimidin-4-yl]-4-pentyl-1H-pyrrolo[2,3-b]pyridine] showed an IC50 [6] of 195 nM, an IC50 [7, 10] of 200 nM and an IC50 [1] of 1750 nM. It also gave an IC50 [2] of 8100 nM, an IC50 [3, 9] of 56 nM and an IC50 [4] of 13000 nM. The melting point was over 210 °C and the IC50 [5] was 350 nM.
For `CC(C)Oc1ccnc2[nH]cc(-c3ccnc(N)n3)c12` [Meriolin 6, 3-[(2-amino)pyrimidin-4-yl]-4-(1-methylethoxy)-1H-pyrrolo[2,3-b]pyridine], the IC50 [1] was 21 nM, the IC50 [2] was 140 nM and the IC50 [5] was 8 nM.
Compound `CCOc1ccnc2[nH]cc(-c3ccnc(N)n3)c12` [Meriolin 4, 3-[(2-amino)pyrimidin-4-yl]-4-ethoxy-1H-pyrrolo[2,3-b]pyridine] has an IC50 [1] of 30 nM, an IC50 [2] of 100 nM and an IC50 [3, 9] of 32 nM. It also gave an IC50 [4] of 81 nM and an IC50 [5] of 10 nM.
`Nc1nccc(-c2c[nH]c3nccc(-c4ccccc4)c23)n1` [Meriolin 23, 3-[(2-amino)pyrimidin-4-yl]-4-phenyl-1H-pyrrolo[2,3-b]pyridine] gave an IC50 [6] of 9 nM, an IC50 [7, 10] of 7 nM and an IC50 [1] of 80 nM. The IC50 [3, 9] was 50 nM, the IC50 [4] was 88 nM and the melting point was over 210 °C. It also gave an IC50 [5] of 10 nM.
Work on `COc1ccnc2[nH]cc(-c3ccnc(SC)n3)c12` [Meriolin 12, 4-methoxy-3-[2-(methylsulfanyl)pyrimidin-4-yl]-1H-pyrrolo[2,3-b]pyridine, reference compound] yielded an IC50 [1] of 7000 nM, an IC50 [2] of 600 nM and an IC50 [3, 9] of 1000 nM. It also gave an IC50 [4] of over 100000 nM and an IC50 [5] of 1800 nM.
Work on `Nc1nccc(-c2c[nH]c3nccc(C#Cc4ccccc4)c23)n1` [Meriolin 21, 3-[(2-amino)pyrimidin-4-yl]-4-(phenyleth-1-ynyl)-1H-pyrrolo[2,3-b]pyridine] yielded a melting point of over 210 °C.
`Nc1nccc(-c2c[nH]c3nccc(OC4CCCCC4)c23)n1` [Meriolin 17, 3-[(2-amino)pyrimidin-4-yl]-4-(cyclohexyloxy)-1H-pyrrolo[2,3-b]pyridine] showed an IC50 [6] of 2.1 nM, an IC50 [7, 10] of 2.1 nM and an IC50 [1] of 4.1 nM. The IC50 [2] was over 100 nM, the IC50 [3, 9] was 26 nM and the IC50 [4] was 27 nM. The melting point was over 210 °C and the IC50 [5] was 2.9 nM.
`COc1cc(Br)nc2[nH]cc(-c3ccnc(N)n3)c12` [Meriolin 4n, 3-[(2-amino)pyrimidin-4-yl]-6-bromo-4-methoxy-1H-pyrrolo[2,3-b]pyridine] showed a melting point of over 210 °C.
In the case of `COc1ccnc2c1c(-c1ccnc(N)n1)cn2C` [Meriolin 9, 3-[(2-amino)pyrimidin-4-yl]-4-methoxy-1-methyl-1H-pyrrolo[2,3-b]pyridine], the IC50 [5] is reported as 25000 nM.
Compound `Nc1nccc(-c2c[nH]c3nccc(Cl)c23)n1` [Meriolin 10, 3-[(2-amino)pyrimidin-4-yl]-4-chloro-1H-pyrrolo[2,3-b]pyridine] has an IC50 [1] of 2000 nM, an IC50 [2] of 3000 nM and an IC50 [3, 9] of 130 nM. It also gave an IC50 [4] of 1920 nM and an IC50 [5] of 240 nM.
With `Oc1ccnc2[nH]cc(-c3ccncn3)c12` [Meriolin 13, 3-(pyrimidin-4-yl)-4-hydroxy-1H-pyrrolo[2,3-b]pyridine] the IC50 [1] was 1800 nM and the IC50 [4] was 28000 nM.
`Nc1nccc(-c2c[nH]c3nccc(OCC4CCCCC4)c23)n1` [Meriolin 16, 3-[(2-amino)pyrimidin-4-yl]-4-(cyclohexylmethoxy)-1H-pyrrolo[2,3-b]pyridine] gave an IC50 [6] of 1.2 nM, an IC50 [7, 10] of 3 nM and an IC50 [1] of 6 nM. It also gave an IC50 [2] of over 100 nM, an IC50 [3, 9] of 45 nM and an IC50 [4] of 22 nM. The melting point was over 210 °C and the IC50 [5] was 2.2 nM.
Compound `CCCOc1ccnc2[nH]cc(-c3ccnc(N)n3)c12` [Meriolin 5, 3-[(2-amino)pyrimidin-4-yl]-4-propoxy-1H-pyrrolo[2,3-b]pyridine] has an IC50 [1] of 25 nM, an IC50 [2] of 200 nM and an IC50 [3, 9] of 37 nM. It also gave an IC50 [4] of 26 nM and an IC50 [5] of 7 nM.

From patent publication US20100184790A1, “PYRROLO[2,3-B]PYRIDINE COMPOUNDS, AZAINDOLE COMPOUNDS USED FOR SYNTHESIZING SAID PYRROLO[2,3-B]PYRIDINE COMPOUNDS, METHODS FOR THE PRODUCTION THEREOF, AND USES THEREOF” (CENTRE NATIONAL DE LA RECHERCHE SCIENTIFIQUE, priority 2007, published 2010)
